Measured values taken from patent US20220041532A1, “HYDROFLUOROOLEFINS AND METHODS OF USING SAME” (3M INNOVATIVE PROPERTIES COMPANY, priority 2018, published 2022).

Assays:
[1] = Largest Soluble Hydrocarbon (LSH) test; assay type: physicochemical; details: hydrofluoroolefin:hydrocarbon about 1:1 to 1:2 by weight
Protocol: Largest Soluble Hydrocarbon (LSH): The LSH of each hydrofluoroolefin compound was determined by mixing the compound with hydrocarbons of varying molecular weight (CnH2n+2, where n=9 to 24) in a hydrofluoroolefin:hydrocarbon ratio of about 1:1 to 1:2 by weight at room temperature (25° C.) and at 50° C. […] A larger value of n is interpreted herein to indicate a greater ability of the hydrofluoroolefin to clean hydrocarbons.
The results presented in Table 2 indicate that the hydrofluoroolefins of the present invention are highly suitable fluids for cleaning applications.

[2] = Atmospheric lifetime from rates of reaction with hydroxyl radicals; assay type: physicochemical; details: Degrades by direct photolysis and ozonolysis; value stated as 'Likely'
Protocol: Atmospheric lifetime: The atmospheric lifetimes of hydrobromofluoroolefin Examples 1-3 were determined from their rates of reaction with hydroxyl radicals. The pseudo-first order rate for the reaction of the gaseous hydrobromofluoroolefin with hydroxyl radical was measured in a series of experiments relative to reference compounds such as chloromethane and ethane. The measurements were performed in a 5.7 L, heated FTIR gas cell equipped with a polished semiconductor-grade quartz window. An Oriel Instruments UV Lamp, Model 66921 equipped with a 480W mercury-xenon bulb was used to generate hydroxyl radicals by photolyzing ozone in the presence of water vapor. The concentrations of the hydrobromofluoroolefin and the reference compound were measured as a function of reaction time using an I-Series FTIR from Midac Corporation. The atmospheric lifetime was calculated from the reaction rates for the hydrobromofluoroolefin relative to the reference compounds and the reported lifetime of the reference compounds as shown below:
where τx is the atmospheric lifetime of hydrobromofluoroolefin, τr is the atmospheric lifetime of the reference compound, and kx and kr are the rate constants for the reaction of hydroxyl radical with hydrobromofluoroolefin and the reference compound, respectively.
The atmospheric lifetimes of Examples 1-3 were determined from their rates of reaction with hydroxyl radicals as described above and are reported in Table 3.

[3] = 25° C., longest hydrocarbon compatible without haze
[4] = 50° C., >23 = miscible with C23H48 without haze

SMILES	LSH (n in CnH2n+2) [1, 3]	LSH (n in CnH2n+2) [1, 4]	Atmospheric Lifetime [2]
FC(=CBr)C(F)(F)C(F)(F)F [Example 2, 1-bromo-2,3,3,4,4,4-hexafluorobut-1-ene]	19	>23	ozonolysis. Likely <0.05 years
FC(=CBr)C(F)(F)F [Example 1, 1-bromo-2,3,3,3-tetrafluoroprop-1-ene]	19	>23	ozonolysis. Likely <0.05 years
FC(=CBr)C(F)(F)C(F)(F)C(F)F [Example 4, I-bromo-2,3,3,4,4,5,5-heptafluoropent-1-ene]	19	>23	
FC(=CCl)C(F)(F)C(F)(F)F [Example 6, 1-chloro-2,3,3,4,4,4-but-1-ene]	19		
FC(=CCl)C(F)C(F)(F)F (stereo not drawn) [Example 10, 1-chloro-2,3,4,4,4-pentafluoro-but-1-ene]	19	>23	
FC(=CCl)C(F)OC(F)(F)F (stereo not drawn) [Example 11, 1-chloro-2,3-difluoro-3-(trifluoromethoxy)prop-1-ene]	18	>23	
FC(=CCl)C(F)(F)C(F)(F)C(F)(F)F [Example 5, 1-chloro-2,3,3,4,4,5,5,5-pent-1-ene]	17	22	
FC(=CCl)C(F)(F)N(C(F)(F)F)C(F)(F)C(F)(F)F [Example 9, 3-chloro-1,1,2-trifluoro-N-(1,1,2,2,2-pentafluoroethyl)-N-(trifluoromethyl)prop-2-en-1-amine]	13	17	
FC(=CBr)C(F)F [Example 3, 1-bromo-2,3,3-trifluoroprop-1-ene]	19	>23	ozonolysis. Likely <0.05 years
FC(=CCl)C(F)(F)OC(F)(F)F [Example 7, 1-chloro-2,3,3-trifluoro-3-(trifluoromethoxy)prop-1-ene]	19	>23	
FC(=CCl)N1C(F)(F)C(F)(F)OC(F)(F)C1(F)F [Example 8, 4-(2-chloro-1-fluoro-vinyl)-2,2,3,3,5,5,6,6-octafluoro-morpholine]	14	18	
